Values quoted from earlier work as cited in US5389382A, “Hydrosols of pharmacologically active agents and their pharmaceutical compositions comprising them” (Sandoz Ltd., priority 1986, dated 1995).

Settings: at room temperature

water solubility: below 0.1 g/100 ml
SMILES: Cc1ccc2c(-c3ccccc3)nc(=O)n(C(C)C)c2c1 [Proquazone, 1-isopropyl-7-methyl-4-phenyl-2(1H)-quinazolone]
